The record followed here is patent US5686486A, “4-hydroxy-benzopyran-2-ones and 4-hydroxy-cycloalkyl[b]pyran-2-ones useful to treat retroviral infections” (priority 1995, dated 1997).

The target of the assay is HIV-1 protease (Human immunodeficiency virus type 1 group M subtype B, UniProt P04585). Nature of the assay: biochemical. The note with it: for inhibition at 0.123 µM: read-out: HIV-1 Protease % Inhib, dose 0.123 uM; for pIC50: HIV-1 Protease IC50; for inhibition at 1 µM: read-out: HIV-1 Protease % Inhib, dose 1.000 uM; for inhibition at 100 µM: read-out: HIV-1 Protease % Inhib, dose 100.000 uM. The procedure, abridged:
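Biotinylated, FITC-labeled peptide substrate (20 μl of 0.2 μM) incubated with HIV-1 protease (10 μl of 0.1 μM) and compound in 0.1 M sodium acetate pH 5.5, 1.0 M NaCl, 0.05% NP-40, 1 h, room temperature, dark. Streptavidin beads then capture uncleaved substrate; filtered labeled product read by fluorescence, giving percent inhibition.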

The mark [1] stands for this setting: read-out: HIV-1 Protease % Inhib, dose 0.370 uM.
Where [2] appears, read: read-out: HIV-1 Protease % Inhib, dose 1.100 uM.
The mark [3] stands for this setting: read-out: HIV-1 Protease % Inhib, dose 3.300 uM.
[4] abbreviates: read-out: HIV-1 Protease % Inhib, dose 10.000 uM.
Where [5] appears, read: read-out: HIV-1 Protease % Inhib, dose 30.000 uM.
Setting [6] is: dose 1.100 uM, read-out: HIV-1 Protease % Inhib.
[7] abbreviates: dose 3.300 uM, read-out: HIV-1 Protease % Inhib.
Setting [8] is: dose 10.000 uM, read-out: HIV-1 Protease % Inhib.
The mark [9] stands for this setting: dose 30.000 uM, read-out: HIV-1 Protease % Inhib.
Setting [10] is: dose 0.370 uM, read-out: HIV-1 Protease % Inhib.

pIC50: −log10 of the molar value. Like-named read-outs stand apart in the source and are kept apart here.

As for `O=c1oc2c(c(O)c1C(c1cccc(NS(=O)(=O)c3ccc(Cl)c(Cl)c3Cl)c1)C1CC1)CCCCCC2` (centres unmarked) [Example 410, 2,3,4-Trichloro-N-[3-[cyclopropyl(5,6,7,8,9,10-hexahydro-4-hydroxy-2-oxo-2H-cycloocta[b]pyran-3-yl)methyl]phenyl]-benzenesulfonamide], the inhibition at 0.123 µM was 49.5%. Further, under setting [1], the inhibition at 0.37 µM was 79.7%. For the same compound, the inhibition at 1.1 µM under setting [2] was found to be 91.4%. Also, the inhibition at 3.3 µM under setting [3] turned out to be 90.9%. The inhibition at 10 µM under setting [4] stood at 96.8%. In addition, the inhibition at 30 µM under setting [5] was 98.3%.
As to `Cn1cnc(S(=O)(=O)Nc2cccc([C@@H](c3c(O)c4c(oc3=O)CCCCCC4)C3CC3)c2)c1` [Example 297, N-[3-[Cyclopropyl(5,6,7,8,9,10-hexahydro-4-hydroxy-2-oxo-2H-cycloocta-3-yl)methyl]phenyl]-1-methyl-(S)-1H-imidazole-4-sulfonamide], the inhibition at 0.123 µM came to 72%. Moreover, the inhibition at 0.37 µM under setting [1] came out at 86%. In addition, under setting [2], the inhibition at 1.1 µM was 101%. Besides, under setting [3], the inhibition at 3.3 µM is 99.8%. For the same compound, the inhibition at 10 µM under setting [4] was determined as 102%. Besides, the inhibition at 30 µM under setting [5] was determined as 99.5%.
In the case of `O=c1oc2c(c(O)c1C(c1ccc(CO)o1)C1CC1)CCCCCC2` (centres unmarked) [Example 383], under setting [6], the inhibition at 1.1 µM was 28.9%. Also, the inhibition at 3.3 µM under setting [7] came out at 73%. The inhibition at 10 µM under setting [8] was found to be 90.2%. The inhibition at 30 µM under setting [9] was 94.6%.
For `O=C(Nc1cccc(C(c2c(O)c3c(oc2=O)CCCCCC3)C2CC2)c1)c1ccc(Cl)cc1` (centres unmarked) [Example 206, Benzamide, 4-chloro-N-[3-[cyclopropyl(5,6,7,8,9,10-hexahydro-4-hydroxy-2-oxo-2H-cycloocta[b]pyran-3-yl)methyl]phenyl]-], the inhibition at 0.37 µM under setting [10] came out at 17.9%. Moreover, the inhibition at 1.1 µM under setting [6] amounted to 48%. The inhibition at 3.3 µM under setting [7] worked out at 76.4%. Moreover, the inhibition at 10 µM under setting [8] was 95.8%. Besides, under setting [9], the inhibition at 30 µM amounted to 93.1%.
For `O=C(Nc1ccccc1)Nc1cccc(C(c2c(O)c3c(oc2=O)CCCCCC3)C2CC2)c1` (centres unmarked) [Example 224, N-[3-[Cyclopropyl(5,6,7,8,9,10-hexahydro-4-hydroxy-2-oxo-2H-cycloocta[b]pyran-3-yl)methyl]phenyl]-N'-phenyl-urea] the same measures were 10.9%, 42.4%, 72.3%, 83.7% and 95.3%.
For `COCCC1CCCCc2c1oc(=O)c(C(c1ccccc1)C1CC1)c2O` (centres unmarked) [Example 193, 3-(Cyclopropylphenylmethyl)-6,7,8,9-tetrahydro-4-hydroxy-9-(methoxyethyl)-cyclohepta[b]pyran-2(5H)-one], the inhibition at 1.1 µM under setting [6] turned out to be 35%. For the same compound, the inhibition at 3.3 µM under setting [7] stood at 70.4%. Further, under setting [8], the inhibition at 10 µM was found to be 97.7%. The inhibition at 30 µM under setting [9] worked out at 105%.
With `CCOc1ccc2c(O)c(C(CC)c3ccccc3)c(=O)oc2c1` (stereo not drawn) [Example 82, Coumarin, 7-ethoxy-3-(α-ethylbenzyl)-4-hydroxy-], the pIC50 was 6.05, the inhibition at 1 µM was determined as 30.9% and the inhibition at 100 µM stood at 89%. The inhibition at 10 µM under setting [4] amounted to 69.7%.
As for `CC(C)CC(c1ccccc1)c1c(O)c2ccccc2oc1=O` (centres unmarked) [Example 14, 4-Hydroxy-3-(3-methyl-1-phenylbutyl)-coumarin], the inhibition at 1 µM is 32.2% and the inhibition at 100 µM turned out to be 87.1%. The inhibition at 10 µM under setting [4] was found to be 64.6%.
Consider `O=c1oc2c(c(O)c1C(c1cccc(NC(=S)Cc3ccccc3)c1)C1CC1)CCCCCC2` (centres unmarked) [Example 368, Benzeneethanethioamide, N-[3-[cyclopropyl(5,6,7,8,9,10-hexahydro-4-hydroxy-2-oxo-2H-cycloocta[b]pyran-3-yl)methyl]phenyl]-], for which the inhibition at 1.1 µM under setting [6] is 17.4%. The inhibition at 3.3 µM under setting [7] was 54.5%. Besides, the inhibition at 10 µM under setting [8] stood at 77.8%. The inhibition at 30 µM under setting [9] was 86.8%.
Turning to `N#Cc1ccc(S(=O)(=O)NCc2ccc(C(c3c(O)c4c(oc3=O)CCCCCC4)C3CC3)s2)cc1` (centres unmarked) [Example 392], the inhibition at 1.1 µM under setting [6] was 11.5%. Besides, the inhibition at 3.3 µM under setting [7] was found to be 47%. The inhibition at 10 µM under setting [8] came out at 77.6%. Moreover, the inhibition at 30 µM under setting [9] is 99.7%.
Take `C=CCOc1cccc(C(CC)c2c(O)c3ccccc3oc2=O)c1` (centres unmarked) [Example 67, 3-(1'-(3-Allyloxyphenyl)propyl)-4-hydroxycoumarin]: the inhibition at 1 µM was less than 10% and the inhibition at 100 µM stood at 60.9%. Also, under setting [4], the inhibition at 10 µM came out at 11.7%.
For `CCC(c1cccc(NC(=O)CCC2CCCCC2)c1)c1c(O)c2ccccc2oc1=O` (centres unmarked) [Example 56, Coumarin, 3-[1-[3-[(3-cyclohexyl-1-oxopropyl)amino]phenyl]propyl]-4-hydroxy-], the inhibition at 1 µM is less than 10% and the inhibition at 100 µM was found to be 49.5%. In addition, the inhibition at 10 µM under setting [4] is less than 10%.
In the case of `COc1ccc2c(c1)C(c1c(O)c3ccccc3oc1=O)CCC2` (centres unmarked) [Example 77, 4-Hydroxy-3-(1-(7-methoxy)-1,2,3,4-tetrahydronaphthyl)-coumarin], the inhibition at 1 µM was less than 10% and the inhibition at 100 µM stood at 92.5%. Further, the inhibition at 10 µM under setting [4] amounted to 57.8%.
Consider `CCCCC(=O)Nc1cccc(C(CC)c2c(O)c3ccccc3oc2=O)c1` (centres unmarked) [Example 44, Coumarin, 4-hydroxy-3-[1-[3-[(1-oxopentyl)amino]phenyl]propyl]-], for which the inhibition at 1 µM was less than 10% and the inhibition at 100 µM came out at 55.6%. Under setting [4], the inhibition at 10 µM was less than 10%.
As to `O=c1oc2c(c(O)c1C(c1cccc(NS(=O)(=O)c3ccc(F)cc3F)c1)C1CC1)CCCCCC2` (centres unmarked) [Example 279, N-[3-[Cyclopropyl(5,6,7,8,9,10-hexahydro-4-hydroxy-2-oxo-2H-cycloocta[b]pyran-3-yl)methyl]phenyl]-2,4-difluoro-benzenesulfonamide], the inhibition at 0.123 µM was determined as 78.2%. In addition, the inhibition at 0.37 µM under setting [1] came to 97.3%. Moreover, the inhibition at 1.1 µM under setting [2] turned out to be 105%. The inhibition at 3.3 µM under setting [3] is 103%. In addition, under setting [4], the inhibition at 10 µM is 109%. Besides, the inhibition at 30 µM under setting [5] was determined as 94.8%.
Take `CC(c1cccc(C(=O)NCc2ccccn2)c1)c1c(O)c2ccccc2oc1=O` (centres unmarked) [Example 27, Coumarin, 4-hydroxy-3-[1-[3-[[[(2-pyridinyl)methyl]amino]carbonyl]phenyl]ethyl]-]: the inhibition at 1 µM is less than 10% and the inhibition at 100 µM came out at 72%. For the same compound, the inhibition at 10 µM under setting [4] was less than 10%.
Turning to `O=c1oc2c(c(O)c1C(c1cccc(N(Cc3ccccc3)S(=O)(=O)c3ccccc3)c1)C1CC1)CCCCCC2` (centres unmarked) [Example 244, N-[3-[Cyclopropyl(5,6,7,8,9, 10-hexahydro-4-hydroxy-2-oxo-2H-cycloocta[b]pyran-3-yl)methyl]phenyl]-N-(phenylmethyl)-benzenesulfonamide], the inhibition at 10 µM under setting [8] came to 18.8%. Further, under setting [9], the inhibition at 30 µM was 31.8%.
For `CCC(c1ccccc1)c1c(O)c2cc(O)ccc2oc1=O` (centres unmarked) [Example 95, Coumarin, 4,6-dihydroxy-3-(1-phenylpropyl)-], the inhibition at 1 µM was less than 10% and the inhibition at 100 µM is 79.6%. Further, the inhibition at 10 µM under setting [4] was 34.7%.
For the compound `C[C@@H](NC(=O)OC(C)(C)C)C(=O)Nc1cccc(C(c2c(O)c3c(oc2=O)CCCCCC3)C2CC2)c1` (stereo partly drawn) [Example 203, Carbamic acid, [2-[[3-[cyclopropyl(5,6,7,8,9,10-hexahydro-4-hydroxy-2-oxo-2H-cycloocta[b]pyran-3-yl)methyl]phenyl]amino]-1-(R)-methyl-2-oxyethyl]-, 1,1-dimethylethyl ester], the inhibition at 0.123 µM was determined as 15.6%. Besides, the inhibition at 0.37 µM under setting [1] stood at 55.8%. For the same compound, the inhibition at 1.1 µM under setting [2] is 81.3%. Moreover, under setting [3], the inhibition at 3.3 µM amounted to 94.3%. In addition, the inhibition at 10 µM under setting [4] was determined as 104%. For the same compound, the inhibition at 30 µM under setting [5] is 94.3%.
Take `O=c1oc2c(c(O)c1C(c1ccc(NS(=O)(=O)c3cccc([N+](=O)[O-])c3)cc1)C1CC1)CCCCCC2` (centres unmarked) [Example 475, Benzenesulfonamide, 3-nitro-N-[4-[cyclopropyl (5,6,7,8,9,10-hexahydro-4-hydroxy-2-oxo-2H-cycloocta[b]pyran-3-yl)methyl]phenyl]-]: the inhibition at 0.37 µM under setting [10] came to 11.8%. The inhibition at 1.1 µM under setting [6] stood at 27.9%. Under setting [7], the inhibition at 3.3 µM came to 84.1%. Further, under setting [8], the inhibition at 10 µM amounted to 103%. Under setting [9], the inhibition at 30 µM came out at 110%.
For `CCC(c1c(O)c2ccccc2oc1=O)c1cccc2ccccc12` (centres unmarked) [Example 20, 4-Hydroxy-3-(1-(1-naphthyl)-propyl)-coumarin], the inhibition at 1 µM was less than 10% and the inhibition at 100 µM came out at 79.8%. Further, the inhibition at 10 µM under setting [4] is 20.3%.
Turning to `CC(c1cccc(C(=O)NCC(=O)NCc2nc3ccccc3[nH]2)c1)c1c(O)c2ccccc2oc1=O` (centres unmarked) [Example 33, Coumarin, 3-[1-[3-[[[[[[(2-benzimidazolyl)methyl]amino]carbonyl]methyl]amino]carbonyl]phenyl]ethyl]4-hydroxy-], the inhibition at 1 µM was less than 10% and the inhibition at 100 µM stood at 77.4%. In addition, the inhibition at 10 µM under setting [4] was 11.2%.
As to `CCC(c1cccc(NC(=O)CNC(=O)OC(C)(C)C)c1)c1c(O)c2ccccc2oc1=O` (centres unmarked) [Example 43, Coumarin, 4-hydroxy-3-[1-[3-[[[[(1,1-dimethylethoxycarbonyl)amino]methyl]carbonyl]amino]phenyl]propyl]-], the pIC50 was 5.68, the inhibition at 1 µM was found to be 28.4% and the inhibition at 100 µM is 122%. Further, the inhibition at 10 µM under setting [4] is 103%.
